According to patent US10576050B2, “Methods and compositions for treatment of cancer” (ONCONOVA THERAPEUTICS, INC., priority 2012, dated 2020):

Key:
[1] = Phase I/II trials of intravenous Rigosertib in MDS patients: bone marrow blast response and overall survival
Experimental: According to one embodiment, Rigosertib was given as an intravenous infusion to MDS patients. In one trial, patients received 800 mg Rigosertib for three to five days every other week. According to another embodiment, patients received 650 to 1,700 mg Rigosertib for three to six days every other week. According to yet another embodiment, patients were initially treated with 800 mg to 1,500 mg Rigosertib for two days every week for three weeks followed by one week without treatment. The treatment schedule in these studies was later changed to 1,800 mg Rigosertib for three days every other week.
In this Example, bone marrow (BM) response and overall survival (OS) were analyzed in 60 patients (pts) with MDS, including 51 patients with refractory anemia and excess blasts (RAEB) and 9 patients with refractory cytopenia and multilineage dysplasia (RCMD) enrolled in 4 independent Phase 1/II clinical trials.
The patients were treated with Rigosertib administered as a continuous intravenous infusion (CIV) from 2 to 6 days weekly or every other week with BM response initially assessed per protocol by week 4 or 8 and every 8 weeks thereafter. Overall survival (OS) analyses were performed by the method of Kaplan-Meier.

[2] = Oral administration of Rigosertib 25 mg dose capsule in MDS patients, plasma level
[3] = 39 RAEB-1, 2, t-pts refractory or relapsing after azacitidine/decitabine
[4] = higher risk MDS patients who had previously failed Vidaza or Dacogen

Which results are given for COc1cc(OC)c(/C=C/S(=O)(=O)Cc2ccc(OC)c(NCC(=O)[O-])c2)c(OC)c1.[Na+] [Rigosertib, sodium (E)-2-{2-methoxy-5-[(2′,4′,6′-trimethoxystyrylsulfonyl)methyl]phenylamino}acetate]?
patients still alive at 49 weeks ([1]; 15 patients refractory/relapsing after hypomethylating agents, 3-day infusions 1800 mg/day every other week): 47%; N patients with Progressive Disease [1, 3]: 3; N patients with Stable BM Response [1, 3]: 14; N patients with ≥50% Blast Decrease [1, 3]: 13; Median OS ([1]; 39 pts refractory/relapsing after azacitidine/decitabine, BM response Not Assessed): 11 weeks; Median OS ([1]; 39 pts refractory/relapsing after azacitidine/decitabine, Progressive Disease): 10 weeks; Median OS ([1]; 39 pts refractory/relapsing after azacitidine/decitabine, Stable BM Response): 40 weeks; Median OS ([1]; 39 pts refractory/relapsing after azacitidine/decitabine, ≥50% Blast Decrease): 44 weeks; N patients with Progressive Disease ([1]; 51 RAEB-1, 2, t-pts): 4; N patients with Stable BM Response ([1]; 51 RAEB-1, 2, t-pts): 21; N patients with ≥50% Blast Decrease ([1]; 51 RAEB-1, 2, t-pts): 16; Median OS ([1]; 51 RAEB-1, 2, t-pts, BM response Not Assessed): 11 weeks; Median OS ([1]; 51 RAEB-1, 2, t-pts, Progressive Disease): 13.5 weeks; Median OS ([1]; 51 RAEB-1, 2, t-pts, Stable BM Response): 36 weeks; Median OS ([1]; 51 RAEB-1, 2, t-pts, ≥50% Blast Decrease): 48 weeks; patients with hematological improvements ([1]; 60 MDS patients, CIV): Nine; tolerability of infusions ([1]; CIV infusions, MDS patients): well tolerated without evidence of bone marrow myelotoxicity; median survival ([1]; Intermediate-1 risk MDS patients, previously failed azacitidine or decitabine): about 77 weeks; median survival ([1]; Intermediate-2 risk MDS patients, previously failed azacitidine or decitabine): about 37 weeks; decrease in immature bone marrow cells ([1]; MDS patients who had previously failed azacitidine or decitabine): about 50%; decrease or stabilization in the number of immature bone marrow cells (blasts) ([1]; MDS patients, intravenous infusion, in general): ≥ 50%; Median OS ([1]; RAEB-1, 17 of 60 MDS patients, CIV): 43 weeks; Median OS ([1]; RAEB-2, 21 of 60 MDS patients, CIV): 37 weeks; Median OS ([1]; RAEB-T, 13 of 60 MDS patients, CIV): 20 weeks; Median OS ([1]; RCMD, 9 of 60 MDS patients, CIV): 98 weeks; decrease or stabilization in the number of immature bone marrow cells [1, 4]: ≥ 50%; median survival [1, 4]: about 36 weeks; half-life ([2]; human, plasma, po, 25 mg): ~10 h; plasma peak level ([2]; oral, 25 mg dose capsule, MDS patients): 2 to 4 µM
